Consider three compounds from publication PMC8744835, “Sterically Hindered Quaternary Phosphonium Salts (QPSs): Antimicrobial Activity and Hemolytic and Cytotoxic Properties” (International Journal of Molecular Sciences, 2021).

Molecules are shown by their SMILES. Some results are limits rather than exact numbers.

The subject of series [1] is Escherichia coli ATCC 25922. Nature of the series: Antimicrobial activity, serial dilution technique in Mueller–Hinton Broth 2. The class given is cell-based. The settings on record: average of three ± SD, - means non-active; for MBC: Escherichia coli, ATCC25922, Ec, read-out: Minimum Bactericidal and Fungicidal Concentration (MBC, MFC), Ec.
In a further series the test system is Chang liver cell line. Nature of the series: Cytotoxicity assay (Cytell Cell Imaging, DAPI/propidium iodide). Format: cell-based, human. The conditions noted are these: for IC50: Homo sapiens, Chang liver, read-out: IC50 (concentration that causes the death of 50% of the cells), Chang liver cells.
The subject of a further series is human erythrocytes. Nature of the series: Hemolytic activity. Format: cell-based. The conditions noted are these: red blood cells. The text has this: An important characteristic when assessing the biological activity of new chemical compounds is their cytotoxic effect on eukaryotic cells. The ability of an investigated compound to cause the destruction of human erythrocytes illustrates its toxic effect on the internal environment. The hemolysis assay is a simple screening test that can help in the study of cytotoxicity in more complex models. Cell lines obtained from various human organs and tissues that allow for adequate estimation of the effects of new potential drugs on cell metabolism can serve as experimental models.
The hemolytic activity of the QPSs was estimated by comparing the optical density of a solution containing the test compound with that of blood at 100% hemolysis. The experiments were carried out as previously described.

The subject of series [2] is Escherichia coli ATCC 25922. Nature of the series: Antimicrobial activity, serial dilution technique in Mueller–Hinton Broth 2. The class given is cell-based. The conditions noted are these: average of three ± SD, - means non-active; for MIC: Escherichia coli, ATCC25922, Ec, read-out: Minimum Inhibitory Concentration (MIC), Ec. A digest of the protocol:
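Compounds were serially diluted in Mueller–Hinton Broth 2 and inoculated at 3.0 × 10^5 cfu/mL. Cultures were then incubated at 37 °C with growth recorded daily for 5 days. The MIC was taken as the minimum concentration inhibiting growth, from three experiments.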

Series [3] has as its system Staphylococcus aureus ATCC 6538P FDA 209P. The series is described as above. Format: cell-based. The settings on record: average of three ± SD, - means non-active. The procedure, abridged:
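Antimicrobial activity against Staphylococcus aureus ATCC 6538P FDA 209P was measured by serial dilution in Mueller–Hinton Broth 2 at a bacterial load of 3.0 × 10^5 cfu/mL. Cultures were incubated at 37 °C, growth was recorded every 24 h for 5 days, and the experiment was done three times.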

The test system of series [4] is Enterococcus faecalis ATCC 2921. Described as above. The class given is cell-based. The conditions noted are these: average of three ± SD, - means non-active; for MBC / MIC: Enterococcus faecalis, ATCC2921, Ef; for MBC: read-out: Minimum Bactericidal and Fungicidal Concentration (MBC, MFC), Ef; for MIC: read-out: Minimum Inhibitory Concentration (MIC), Ef. The procedure, abridged: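 Antibacterial activity against Enterococcus faecalis ATCC 2921 was assessed by serial dilution in Mueller–Hinton Broth 2 with a bacterial load of 3.0 × 10^5 cfu/mL. Cultures were incubated at 37 °C, with growth recorded every 24 h for 5 days, and the experiment was performed three times.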

Series [5] concerns Bacillus cereus ATCC 10702 NCTC 8035. The series is described as above. The class given is cell-based. The settings on record: average of three ± SD, - means non-active. A digest of the protocol: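 Antibacterial activity against Bacillus cereus ATCC 10702 NCTC 8035 was measured by serial dilution in Mueller–Hinton Broth 2 at a bacterial load of 3.0 × 10^5 cfu/mL. Cultures were kept at 37 °C and growth was read every 24 h for 5 days. The experiment was done three times, and MIC and bactericidal concentrations were determined.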

Series [6] deals with methicillin-resistant S. aureus MRSA-1. The description is as above. Format: cell-based, Staphylococcus aureus. The settings on record: - means non-active; for MIC: read-out: Minimum Inhibitory Concentration (MIC), MRSA-1. The procedure, abridged:
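Antimicrobial activity against methicillin-susceptible Staphylococcus aureus MRSA-1, a hospital isolate from a chronic tonsillitis patient that is resistant to fluoroquinolones and beta-lactams, was determined by serial dilution in Mueller–Hinton Broth 2. The bacterial load was 3.0 × 10^5 cfu/mL, incubation was at 37 °C, and growth was recorded every 24 h for 5 days.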

Series [7] has as its system methicillin-resistant S. aureus MRSA-2. Described as above. The class given is cell-based, Staphylococcus aureus. The conditions noted are these: - means non-active. A digest of the protocol: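 Antimicrobial activity against methicillin-susceptible Staphylococcus aureus MRSA-2, a beta-lactam-resistant clinical isolate from a sinusitis patient at the Republican Clinical Hospital (Kazan), was assessed by serial dilution in Mueller–Hinton Broth 2. The inoculum was 3.0 × 10^5 cfu/mL. Cultures were incubated at 37 °C and read every 24 h for 5 days, in three repeat experiments.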

The test system of series [8] is Trichophyton mentagrophytes var. gypseum 1773. Nature of the series: Fungicidal activity, serial dilution technique. Format: cell-based. The settings on record: Tm, average of three ± SD, - means non-active. A digest of the protocol: (§1)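 Serial dilution in Mueller–Hinton Broth 2 with an inoculum of 3.0 × 10^5 cfu/mL, 37 °C, read every 24 h for 5 days; three repeats. MIC is the lowest concentration inhibiting visible growth of the test organism.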

The test system of series [9] is Candida albicans ATCC 10231. Nature of the series: Fungicidal activity, serial dilution technique. The conditions noted are these: average of three ± SD, - means non-active. Format: cell-based. The procedure, abridged:
as §1

The mark [10] stands for this setting: Staphylococcus aureus, MRSA, MRSA-1 (resistant to fluoroquinolones and beta-lactams).

As for `CCCCCCCCC[P+](C(C)(C)C)(C(C)(C)C)C(C)(C)C` [Compound 9a], the MBC in series [1] stood at 125 µg/mL; in series [3] (Staphylococcus aureus, Sa, read-out: Minimum Bactericidal and Fungicidal Concentration (MBC, MFC), Sa) it was 15.6 µg/mL; in series [4] it was 125 µg/mL; in [5] (Bacillus cereus, Bc, read-out: Minimum Bactericidal and Fungicidal Concentration (MBC, MFC), Bc), 125 µg/mL. Further, the IC50 in the series on Chang liver cell line is over 100 µg/mL. Moreover, the “HC50 (concentration that causes 50% hemolysis of erythrocytes)” value with human erythrocytes is over 125 µg/mL. Also, the MIC in series [2] was 125 µg/mL; in series [3] (Staphylococcus aureus, Sa, read-out: Minimum Inhibitory Concentration (MIC), Sa) it was 7.8 µg/mL; in series [4], 62.5 µg/mL; in [6] (setting [10]), 7.8 µg/mL.

In the case of `CCCCCCCCCC[P+](C(C)(C)C)(C(C)(C)C)C(C)(C)C` [Compound 10a], the MBC in [1] amounted to 31.3 ± 2.6 µg/mL; in [4], 7.8 ± 0.6 µg/mL; in [6] (Staphylococcus aureus, MRSA, MRSA-1, read-out: Minimum Bactericidal and Fungicidal Concentration (MBC, MFC), MRSA-1) it was 15.6 ± 1.2 µg/mL; in [7] (Staphylococcus aureus, MRSA, MRSA-2, read-out: Minimum Bactericidal and Fungicidal Concentration (MBC, MFC), MRSA-2) it was 3.9 ± 0.2 µg/mL; in [8] (Trichophyton mentagrophytes, read-out: Minimum Bactericidal and Fungicidal Concentration (MBC, MFC), Tm) it was 125 ± 11 µg/mL; in [9] (Candida albicans, ATCC10231, Ca, read-out: Minimum Bactericidal and Fungicidal Concentration (MBC, MFC), Ca), 31.3 ± 2.3 µg/mL. Moreover, in the series with Chang liver cell line, the IC50 is 66 µg/mL. In the series on human erythrocytes, the “HC50 (concentration that causes 50% hemolysis of erythrocytes)” value was over 125 µg/mL. Further, the MIC came out at 31.3 ± 2.7 µg/mL in series [2]; 7.8 ± 0.6 µg/mL in series [4]; 3.9 ± 0.2 µg/mL in series [5] (Bacillus cereus, Bc, read-out: Minimum Inhibitory Concentration (MIC), Bc); 1.9 ± 0.1 µg/mL in series [6] (setting [10]); 3.9 ± 0.2 µg/mL in series [7] (Staphylococcus aureus, MRSA, MRSA-2 (resistant to beta-lactams), read-out: Minimum Inhibitory Concentration (MIC), MRSA-2); 125 ± 11 µg/mL in [8] (Trichophyton mentagrophytes, read-out: Minimum Inhibitory Concentration (MIC), Tm). Besides, in series [9] (Candida albicans, ATCC10231, Ca, read-out: Minimum Inhibitory Concentration (MIC), Ca), the MIC is 31.3 ± 2.6 µg/mL. Further, the “Minimum Bactericidal and Fungicidal Concentration (MBC, MFC), Sa” value in series [3] came out at 1.9 ± 0.1 µg/mL. The “Minimum Inhibitory Concentration (MIC), Sa” value in [3] was found to be 1.9 ± 0.1 µg/mL. Besides, the “Minimum Bactericidal and Fungicidal Concentration (MBC, MFC), Bc” value in [5] stood at 31.3 ± 2.5 µg/mL.

As to `CCCCCCCCCC[P+](C(C)(C)C)(C(C)(C)C)C(C)(C)C` [Compound 10b], the “Minimum Bactericidal and Fungicidal Concentration (MBC, MFC), Ec” value in series [1] (Ec) came out at 62.5 ± 5.5 µg/mL. Further, the “IC50 (concentration that causes the death of 50% of the cells)” value in the series on Chang liver cell line (Chang liver cells) came to 71 µg/mL. Moreover, in the series with human erythrocytes, the “HC50 (concentration that causes 50% hemolysis of erythrocytes)” value was over 125 µg/mL. For the same compound, in [2] (Ec), the “Minimum Inhibitory Concentration (MIC), Ec” value amounted to 62.5 ± 5.4 µg/mL. Moreover, in series [3], the “Minimum Bactericidal and Fungicidal Concentration (MBC, MFC), Sa” value is 3.9 ± 0.2 µg/mL; the “Minimum Inhibitory Concentration (MIC), Sa” value was found to be 3.9 ± 0.2 µg/mL. Besides, in series [4] (Ef), the “Minimum Bactericidal and Fungicidal Concentration (MBC, MFC), Ef” value is 15.6 ± 1.2 µg/mL; the “Minimum Inhibitory Concentration (MIC), Ef” value was found to be 15.6 ± 1.3 µg/mL. Besides, in [5], the “Minimum Bactericidal and Fungicidal Concentration (MBC, MFC), Bc” value was 125 ± 9 µg/mL; the “Minimum Inhibitory Concentration (MIC), Bc” value is 7.8 ± 0.6 µg/mL. Also, the “Minimum Inhibitory Concentration (MIC), MRSA-1” value in series [6] (MRSA-1 (resistant to fluoroquinolones and beta-lactams)) is recorded as 1.9 ± 0.1 µg/mL. Moreover, in series [6] (MRSA-1), the “Minimum Bactericidal and Fungicidal Concentration (MBC, MFC), MRSA-1” value stood at 15.6 ± 1.3 µg/mL. Moreover, the “Minimum Inhibitory Concentration (MIC), MRSA-2” value in series [7] (MRSA-2 (resistant to beta-lactams)) amounted to 3.9 ± 0.2 µg/mL. Besides, the “Minimum Bactericidal and Fungicidal Concentration (MBC, MFC), MRSA-2” value in series [7] (MRSA-2) came to 7.8 ± 0.6 µg/mL. Moreover, in [8], the “Minimum Bactericidal and Fungicidal Concentration (MBC, MFC), Tm” value amounted to 125 ± 10 µg/mL; the “Minimum Inhibitory Concentration (MIC), Tm” value is given as 125 ± 10 µg/mL. In series [9] (Ca), the “Minimum Bactericidal and Fungicidal Concentration (MBC, MFC), Ca” value is on record as 31.3 ± 2.2 µg/mL; the “Minimum Inhibitory Concentration (MIC), Ca” value amounted to 31.3 ± 2.4 µg/mL.
